Laboratory results published in PMC10713630, “Elucidation of the structural basis for ligand binding and translocation in conserved insect odorant receptor co-receptors” (Nature Communications, 2023).
Where “and” joins values, the source holds several entries; their conditions need not be identical. Equal entries are not always repeated. Entries after “also recorded” stand apart in the source; their conditions may differ.

What was measured:
[1] = molecular target: DmelOrco Y400A (Drosophila melanogaster, UniProt Q9VNB5, Y400A); assay: TEVC recording of VUAA1-induced current, DmelOrco Y400A in Xenopus oocytes; assay type: cell-based; settings: 500 µM VUAA1, TEVC
Chain of DmelOrco Y400A (Q9VNB5 whole entry Y400A, the tested form may be a part): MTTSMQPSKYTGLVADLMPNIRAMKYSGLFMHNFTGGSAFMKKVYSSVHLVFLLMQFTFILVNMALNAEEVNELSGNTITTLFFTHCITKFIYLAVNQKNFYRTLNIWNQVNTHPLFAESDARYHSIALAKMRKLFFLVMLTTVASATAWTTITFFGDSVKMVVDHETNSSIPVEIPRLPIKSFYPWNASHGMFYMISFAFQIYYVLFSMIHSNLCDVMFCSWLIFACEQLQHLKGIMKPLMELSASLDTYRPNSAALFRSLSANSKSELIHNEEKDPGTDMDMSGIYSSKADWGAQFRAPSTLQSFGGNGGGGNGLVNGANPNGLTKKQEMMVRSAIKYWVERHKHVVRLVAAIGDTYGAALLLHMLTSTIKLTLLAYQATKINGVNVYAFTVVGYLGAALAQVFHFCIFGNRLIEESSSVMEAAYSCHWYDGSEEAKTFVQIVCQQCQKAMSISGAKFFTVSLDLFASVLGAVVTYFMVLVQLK
From the text: (§1) All Orco gene sequences were optimized[63] for protein expression in Xenopus laevis oocytes with the GenSmartTM Codon optimization Tool and subcloned into a pGEMHE-derived vector. The wildtype gene of Drosophila melanogaster Orco (DmelOrco) was synthesized by Genscript and subcloned with XmaI/XhoI cloning sites. Site-directed mutagenesis of DmelOrco was done by PCR with the Q5® site directed mutagenesis kit (NEB) using primers optimized with the NEBase Changer online tool and following the supplier’s protocol. After transformation of commercial competent bacteria (XL10 Gold) by standard heat-shock protocol and overnight culture in ampicillin-containing LB plates, positive clones were identified by electrophoretic restriction profile and external sequencing (Genewiz). DNAs of positive clones were amplified with Qiagen MidiPrep Kit and the ORF was fully sequenced. For in vitro transcription, DNAs were linearized with restriction enzyme NotI that cuts a unique site in the 3′ region of the polyA tail. […] DNA and RNA were analyzed by agarose-gel electrophoresis and quantified by spectrophotometry. […]
(§2) Whole cell currents were recorded with the two-electrode voltage-clamp (TEVC) technique with the HiClamp robot (MultiChannel System). […] Data were extracted with M. Vivaudou’s programs[65] and statistically analyzed with Prism 8 (Graphpad).

[2] = molecular target: DmelOrco K373A (Drosophila melanogaster, UniProt Q9VNB5, K373A); assay: TEVC recording of VUAA1-induced current, DmelOrco K373A in Xenopus oocytes; assay type: cell-based; parameters: VUAA1-induced current, K373A: unit not given here
Chain of DmelOrco K373A (Q9VNB5 whole entry K373A, the tested form may be a part): as the sequence (Q9VNB5 whole entry Y400A, the tested form may be a part) above, with K373A, A400Y counted along it
From the text: as §1, §2

[3] = molecular target: DmelOrco L141W (Drosophila melanogaster, UniProt Q9VNB5, L141W); assay: TEVC recording of VUAA1-induced current, DmelOrco L141W in Xenopus oocytes; assay type: cell-based; settings: 500 µM VUAA1, TEVC
Chain of DmelOrco L141W (Q9VNB5 whole entry L141W, the tested form may be a part): as the sequence (Q9VNB5 whole entry Y400A, the tested form may be a part) above, with L141W, A400Y counted along it
From the text: as §1, with “sequenced.” for “sequenced. For in vitro transcription, DNAs were linearized with restriction enzyme NotI that cuts a unique site in the 3′ region of the polyA tail.”
(§3) Whole cell currents were recorded with the two-electrode voltage-clamp (TEVC) technique with the HiClamp robot (MultiChannel System). […] Data were extracted with M. Vivaudou’s programs[65] and statistically analyzed with Prism 8 (Graphpad). […]
100 by 500 µM of the ligand VUAA1 and measured by TEVC recordings on DmelOrco WT and mutants […]

[4] = molecular target: DmelOrco Y397A (Drosophila melanogaster, UniProt Q9VNB5, Y397A); assay: TEVC recording of VUAA1-induced current, DmelOrco Y397A in Xenopus oocytes; assay type: cell-based; parameters: VUAA1-induced current, Y397A: unit not given here
Chain of DmelOrco Y397A (Q9VNB5 whole entry Y397A, the tested form may be a part): as the sequence (Q9VNB5 whole entry Y400A, the tested form may be a part) above, with Y397A, A400Y counted along it
From the text: as §1, §2

[5] = test system: AalbOrco; assay: TEVC recording of VUAA1-induced current, AalbOrco in Xenopus oocytes; assay type: cell-based, Aedes albopictus; settings: 500 µM VUAA1, TEVC, each value one oocyte, Fig.S1c source data
From the text: as §1, with “sequenced.” for “sequenced. For in vitro transcription, DNAs were linearized with restriction enzyme NotI that cuts a unique site in the 3′ region of the polyA tail.”
as §3
37 from different species expressed in Xenopus oocytes and recorded by TEVC. […]

CCc1ccc(NC(=O)CSc2nnc(-c3cccnc3)n2CC)cc1 [VUAA1, N-(4-ethylphenyl)−2-((4-ethyl-5-(3-pyridinyl)−4H-1,2,4-triazol-3-yl)thio)acetamide]
Response to VUAA1 compared with WT [1]: did not significantly change the response | Response to VUAA1 compared with WT ([2]; 500 µM VUAA1, TEVC, K373A): did not significantly affect the amplitude of activation; also recorded: did not change the response | VUAA1-induced current, K373A ([2]; Fig.4b, individual oocytes): 6.85 and 4.61 and 2.07 and 4.45 and 3.44 and 3.51 and 4.3 and 6.42 and 4.68 and 7.17 and 5.08 | Response to VUAA1 compared with WT [3]: did not induce significant change | Response to VUAA1 compared with WT ([4]; 500 µM VUAA1, TEVC, Y397A): did not significantly affect the amplitude of activation; also recorded: did not significantly change the amplitude of activation | VUAA1-induced current, Y397A ([4]; Fig.4b, individual oocytes): 3.14 and 11.04 and 1.66 and 7.27 and 3.17 and 5.5 and 5.32 and 6.03 and 4.8 and 7.35 and 2.62 | Current amplitude induced by 500 µM VUAA1 (single recordings) [5]: 2.82 µA and 1.66 µA
